Several values for one entry are separate records, joined by “and”; a condition that tells them apart may be missing. Identical values can stand only once. Where a SMILES comes first, the peptide text is derived from it. Bridges are numbered along the chain shown (N, C = ends). The star is where a group is joined. DOTA = O=C(O)CN1CCN(CC(=O)O)CCN(CC(=O)*)CCN(CC(=O)O)CC1
Target: T1, ADAMTS4 in the aneurysmal aortic wall of ApoE−/− mice (Mus musculus, UniProt Q8BNJ2)
T1 construct: from tissue
T1 sequence (Q8BNJ2 209-833): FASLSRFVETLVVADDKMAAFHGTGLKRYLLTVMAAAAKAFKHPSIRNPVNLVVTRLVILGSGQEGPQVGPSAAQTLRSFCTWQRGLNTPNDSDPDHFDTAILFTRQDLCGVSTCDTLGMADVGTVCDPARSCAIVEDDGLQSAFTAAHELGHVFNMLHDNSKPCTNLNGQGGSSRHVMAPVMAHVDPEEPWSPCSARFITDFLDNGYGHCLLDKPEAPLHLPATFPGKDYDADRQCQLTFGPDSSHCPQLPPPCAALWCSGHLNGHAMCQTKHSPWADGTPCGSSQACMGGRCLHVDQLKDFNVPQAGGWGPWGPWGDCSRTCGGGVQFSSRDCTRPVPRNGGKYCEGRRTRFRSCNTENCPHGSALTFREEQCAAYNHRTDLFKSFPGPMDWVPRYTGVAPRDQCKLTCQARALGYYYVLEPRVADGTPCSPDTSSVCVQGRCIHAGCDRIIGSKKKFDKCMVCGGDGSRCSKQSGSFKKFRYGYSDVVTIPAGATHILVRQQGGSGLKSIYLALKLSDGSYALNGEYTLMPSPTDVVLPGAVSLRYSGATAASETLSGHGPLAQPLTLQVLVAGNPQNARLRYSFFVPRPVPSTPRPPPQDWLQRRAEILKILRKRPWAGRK
Assay: In vivo MRI, cross-sectional study (2 and 4 weeks AngII, sham)
Conditions: for CNR after administration, individual animals: one line per mouse
Procedure: All procedures and animal maintenance were performed according to the guidelines and regulations of the Federation of Laboratory Animal Science Associations (FELASA) and the local Guidelines and Provisions for Implementation of the Animal Welfare Act. The animal studies were approved by the local authorities (Lageso Berlin.) Mice were obtained from the Research Institute of Experimental Medicine at the Charité Berlin and maintained under barrier conditions, including a dark/light cycle of 12 h, an ambient temperature of 20 °C, and a humidity of 45%. A standard laboratory diet and water were provided ad libitum. For aneurysm induction, male 8-week-old apolipoprotein-E knockout (ApoE^−/−) (B6.129P2-ApoE^tm1Unc/J) mice underwent implantation of osmotic minipumps (Alzet model 2004, Durect Corp). Osmotic minipumps were implanted subcutaneously in the dorsal neck region and continuously delivered angiotensin II (AngII, Merck KGaA, Darmstadt, Germany) (1000 ng/kg/min) for up to 28 days (n = 32). Sham-operated mice (n = 10) served as the control group, receiving saline for 28 days instead of AngII via the osmotic minipumps.
For the cross-sectional study, MR imaging was performed after two and 4 weeks of AngII-infusion (n = 10 per group). […]
MR imaging was performed using a clinical 3 T Siemens system (Biograph, Siemens Healthcare Solutions, Erlangen, Germany). […] Following anesthesia injection, the animals were positioned in a prone position, and body temperature (37 °C) was monitored using an MR-compatible heating system (Model 1025, SA Instruments Inc, Stony Brook, NY) to avoid rapid cooling. […]
Analysis of resulting MR images was performed using OsiriX (version 7.1, OsiriX Foundation, Bernex, Switzerland). […] In order to assess the signal intensities, regions of interest (ROIs) were measured as areas of signal enhancement, which were co-localized with areas of aneurysmal-aortic tissue. For these areas, the CNR was calculated using the following formula: CNR = (Combined vessel-wall and aneurysmal-aortic-tissue-signal − blood-signal)/standard-deviation-signal (noise). […]

## N=C(N)NCCC[C@@H]1NC(=O)[C@H](CCCNC(=N)N)NC(=O)[C@H](CO)NC(=O)[C@@H](N)CSSC[C@@H](C(=O)N[C@@H](CO)C(=O)NCC(=O)NCC(=O)N[C@@H](CO)C(=O)NCC(=O)NCC(=O)N[C@@H](CCCCNC(=O)CN2CCN(CC(=O)O)CCN(CC(=O)O)CCN(CC(=O)O)CC2)C(=O)NCC(N)=O)NC(=O)CNC1=O (Gd complex, metal not drawn) [ADAMTS4-specific probe] (H-CSRRGCSGGSGGK(DOTA)G-NH2; disulfide 1-6)
4 weeks AngII (4w)
  CNR after administration, individual animals: 13.92 and 11.1 and 12.72 and 12.01 and 12.59 and 22.52 and 20.4 and 10.53 and 14.06 and 16.11
Individual mice, n = 7
  CNR of the mice analysed by ICP-MS (Figure 7a): 9.44 and 11.51 and 11.44 and 12.92 and 6.96 and 7.76 and 7.00
Sham (s)
  CNR after administration, individual animals: 6.04 and 7.8 and 7.62 and 6.96 and 7.76 and 7 and 7.77 and 7.23 and 7.52
